Measurements as given in patent US20260284048A1, “INHIBITOR OF MEGAKARYOCYTE DIFFERENTIATION AND MATURATION” (OTSUKA PHARMACEUTICAL CO., LTD., priority 2023, published 2026).

What was measured:
Type in all cases: cell-based
[1] = tested on: Bone marrow-derived CD34-positive cells (CD71-positive and CD235-positive erythroid cells); test: Differentiation from CD34-positive cells toward erythroblasts (HemaTox Erythroid Kit, flow cytometry); conditions: concentrations of 100 nmol/L or lower, cultured 7 days, two donors, FIG. 4
Description: (§1) It was studied whether Compound 1 inhibits the differentiation from CD34-positive cells toward erythroblasts. Bone marrow-derived CD34-positive cells were cultured for 7 days in erythroid differentiation medium (HemaTox™ Erythroid Kit, STEMCELL™ Technologies) according to the kit's instruction. The number of the CD71-positive and CD235-positive erythroid cells were counted by flow cytometry and the cell viability relative to the untreated cell group was calculated. The test was conducted twice using CD34-positive cells derived from different donors, and the cell viability was determined with the control as 100%.

PDE3A and SLFN12 = test: Complex formation of PDE3A and SLFN12 (immunoprecipitation using anti-PDE3A antibody); conditions: PFSK-1 and HeLa cell lines, 1 μmol/L, 16 hours, FIG. 1
Description: In order to examine whether Compound 1 forms a complex between PDE3A and SLFN12, a binding confirmation experiment using immunoprecipitation was performed. PFSK-1 and HeLa which are cell lines expressing PDE3A and SLFN12 were treated with Compound 1 (1 μmol/L) for 16 hours, and then immunoprecipitated using anti-PDE3A antibody.

SLFN12 protein = test: Increase of SLFN12 protein (Western blot analysis); conditions: 1 μmol/L, 16 hours, FIG. 2
Description: In order to examine the effect of Compound 1 on the protein level of SLFN12, Western blot analysis was performed. PFSK-1, HeLa, or U-87 MG cell lines were treated with Compound 1 (1 μmol/L) for 16 hours, and SLFN12 protein in each test sample was detected.

[2] = tested on: Bone marrow-derived CD34-positive cells (CD13-positive and CD15-positive myeloid cells); test: Differentiation from CD34-positive cells toward myeloid cells (HemaTox Myeloid Kit, flow cytometry); conditions: cultured 7 days, two donors, FIG. 5
Description: It was studied whether Compound 1 inhibits the differentiation from CD34-positive cells toward myeloid cells. Bone marrow-derived CD34-positive cells were cultured for 7 days in myeloid differentiation medium (HemaTox™ Myeloid Kit, STEMCELL™ Technologies) according to the kit's instruction. The number of the CD13-positive and CD15-positive myeloid cells was counted by flow cytometry and the cell viability relative to the untreated cell group was calculated. The test was conducted twice using CD34-positive cells derived from different donors, and the cell viability was determined with the control as 100%.

[3] = tested on: Bone marrow-derived CD34-positive cells (CD41-positive megakaryocytes); test: Inhibition of differentiation from CD34-positive cells toward megakaryocytes (HemaTox Megakaryocyte Kit, flow cytometry); conditions: 240 h, cultured 10 days, three donors
Description: as §1, with “megakaryocytes.” for “erythroblasts.”, “10” for “7”, “the presence and absence of Compound 1 in megakaryocyte” for “erythroid”, “Megakaryocyte” for “Erythroid”, “CD41-positive megakaryocytes was” for “CD71-positive and CD235-positive erythroid cells were”, “three times” for “twice”

SMILES: C[C@@H]1CC(=O)NN=C1c1ccc(OCC(C)(C)O)c(F)c1F [Compound 1, (R)-6-(2,3-difluoro-4-(2-hydroxy-2-methylpropoxy)phenyl)-5-methyl-4,5-dihydropyridazin-3(2H)-one]
- effect on differentiation from hematopoietic stem cells toward erythroid cells [1]: did not affect
- coprecipitation of SLFN12 with PDE3A (complex formation) (PDE3A and SLFN12): coprecipitation with SLFN12 was confirmed
- SLFN12 protein level compared to untreated (SLFN12 protein; PFSK-1 or HeLa (highly expresses PDE3A)): increased SLFN12 protein levels were observed
- SLFN12 protein level compared to untreated (SLFN12 protein; U-87 MG (hardly expresses PDE3A)): no significant, Compound 1-dependent increase in SLFN12 protein level was observed
- effect on differentiation from hematopoietic stem cells toward myeloid cells ([2]; 30 nmol/L): inhibited
- effect on differentiation from hematopoietic stem cells toward myeloid cells ([2]; 100 nmol/L): no significant difference
- concentration dependence of the effect on differentiation toward myeloid cells [2]: no concentration-dependent inhibitory effect
- minimal effective concentration ([3]; FIG. 3, read-out: concentration that significantly decreased the number of CD41-positive megakaryocytes): ≥ 0.003 µM
- IC50 ([3]; control as 100%, 95% confidence interval 10.3-23.7 nmol/L, read-out: 50% inhibitory concentration (IC50), number of CD41-positive megakaryocytes): 17 nM
